Results: US20250326815A1, “STAPLE-CONTAINING POLYPEPTIDES AND APPLICATION THEREOF” (Soter Biopharma Pte. Ltd., priority 2021, published 2025)

What was measured:
human plasma albumin = experiment: Plasma protein binding (PPB), human; type: in vitro ADME; set-up: key: NA indicates that the plasma protein binding is too high, and no free drug is detected at a normal plasma protein concentration; conditions: ultracentrifugation
Procedure: (§1) The binding degree of the assay compound to human/mouse plasma albumin was studied.
(§2) 1. Matrix preparation: on the day of the assay, plasma was thawed in cold water and centrifuged at 3220 rpm for 5 min to remove all clots. The pH of the resulting plasma was measured and adjusted to 7.4±0.1 using 1% phosphoric acid or IN sodium hydroxide as needed.
(§3) 2. Dilution procedure for the assay compound: the assay compound was dissolved in dimethyl sulfoxide (DMSO) to prepare stock solutions with concentrations of 10 mM and 2 mM, respectively. A 40 μM working solution was prepared by diluting 2 μL of stock solution (2 mM) with 98 μL of DMSO. A 400 μM working solution of the control compound was prepared by diluting 10 μL of stock solution with 240 μL of DMSO. The working solution of the compound (5 μL) was mixed well with a blank matrix (995 μL) at a ratio of 1:200 to prepare a loading matrix.
(§4) 3.1 An equal volume of 30 μL of loading matrix (n=2) was transferred to a sample collection plate to prepare a time 0 (T0) sample for residue determination. […]
(§5) 3.4 At the end of centrifugation, 30 μL of protein-free samples and 30 μL of T samples were transferred from the second layer of the supernatant (below the top layer) to a new sample collection plate. […] The mixture was centrifuged at 4000 rpm for 20 min and 100 μL of supernatant from each sample was analyzed by LC-MS/MS.

mouse plasma albumin = experiment: Plasma protein binding (PPB), mouse; type: in vitro ADME; set-up: key: NA indicates that the plasma protein binding is too high, and no free drug is detected at a normal plasma protein concentration; conditions: ultracentrifugation
Procedure: as §1, §2, §3, §4, §5

[1] = Pharmacokinetic evaluation in mice; type: in vivo; conditions: mouse, plasma, 0.048 mg/kg, C57BL/6 mice, single SC 0.048 mpk; for half-life: read-out: Half-life T1/2 (converted); for AUC(0-t): read-out: Integral of the SC concentration AUC0-72 h; for Cmax: read-out: Maximum plasma concentration
Procedure: Pharmacokinetics of the compound in C57BL/6 mice were assayed.
(§6) The pharmacokinetic characteristics of the compound in rodents after a subcutaneous injection were assayed using the standard protocol. In the assay, the candidate compound was formulated into a clear solution and given to mice by a single subcutaneous injection (SC, 0.048 mpk). The solvent of the subcutaneous injection was citrate buffer (20 mM, pH=7). Whole blood was collected, and plasma was prepared. Drug concentration was analyzed by LC-MS/MS method, and pharmacokinetic parameters were calculated using Phoenix WinNonlin software.

[2] = Pharmacokinetic evaluation in cynomolgus monkeys; type: in vivo; conditions: cynomolgus monkey, plasma, 0.02 mg/kg, single SC 0.02 mpk; for half-life: read-out: Half-life T1/2 (converted); for AUC(0-t): read-out: Integral of the SC concentration AUC0-240 h; for Cmax: read-out: Maximum plasma concentration
Procedure: Pharmacokinetics of the compound in cynomolgus monkeys were assayed.
as §6, with “mammals” for “rodents”, “cynomolgus monkeys” for “mice”, “0.02” for “0.048”

GLP-1R = target: T1, GLP-1R (Homo sapiens, UniProt P43220); experiment: In vitro agonistic activity on GLP-1R (cAMP assay); type: cell-based; conditions: HEK293 cell line; for Agonistic activity on GLP-1R Max Activity (%): Max Dose 20 nM
T1 construct: host or cells: HEK293
T1 sequence (P43220 24-463, species assumed): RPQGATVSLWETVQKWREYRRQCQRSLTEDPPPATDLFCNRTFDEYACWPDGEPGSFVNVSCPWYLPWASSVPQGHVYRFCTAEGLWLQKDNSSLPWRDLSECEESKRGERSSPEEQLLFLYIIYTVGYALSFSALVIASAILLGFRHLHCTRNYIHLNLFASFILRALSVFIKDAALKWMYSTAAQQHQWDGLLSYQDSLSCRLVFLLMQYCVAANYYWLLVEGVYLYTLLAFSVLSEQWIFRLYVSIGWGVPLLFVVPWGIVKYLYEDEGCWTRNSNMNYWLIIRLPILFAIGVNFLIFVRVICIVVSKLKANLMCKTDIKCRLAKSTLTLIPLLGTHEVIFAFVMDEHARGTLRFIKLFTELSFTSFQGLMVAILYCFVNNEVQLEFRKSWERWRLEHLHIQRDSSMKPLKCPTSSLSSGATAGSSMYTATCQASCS
Procedure: The cell lines were constructed by Shanghai WuXi AppTec.
The compounds to be assayed were serially diluted 4-fold with Bravo to obtain 10 concentrations, with a starting concentration of 30 μM.
1) 100 nL of the compound was transferred to an OptiPlate-384 plate using Echo.
2) The OptiPlate-384 plate was centrifuged at 1000 rpm for 5 seconds.
1) A GLP-1R/GIPR/GCGR cell cryopreservation tube was quickly placed in warm water at 37° C. to thaw.
2) The cell suspension was transferred to a 15 mL centrifuge tube, and gently washed with 10 ml of HBSS.
3) The centrifuge tube was centrifuged at 1000 rpm at room temperature for 1 minute.
4) The supernatant was discarded.
5) The cells at the bottom were gently dispersed and gently washed with 10 ml of HBSS. The cells were centrifuged and sedimented, and finally resuspended with the assay buffer.
6) Vi-cell was used to measure the cell density and viability.
7) The concentration of GLP-1R/GIPR/GCGR cells was diluted to 2.0*105/mL with the assay buffer.
8) […] of the diluted cell suspension was transferred to the OptiPlate-384 plate.
9) The plate was incubated at room temperature for 30 minutes.
1) 10 μL of 800 nM gradient diluted cAMP standard was added into an empty well of the OptiPlate-384 plate.
2) 10 μL of cAMP assay reagent was added.
3) The OptiPlate-384 plate was covered with a TopSeal-A film and incubated at room temperature for 60 minutes.
The TopSeal-A was peeled off and the plate was read on the EnVision.

Row | PPB % unbound (human) (human plasma albumin) | PPB % unbound (mouse) (mouse plasma albumin) | Tmax [1] [h] | half-life [1] [h] | AUC(0-t) [1] [µM·h] | Cmax [1] [nM] | Tmax [2] [h] | half-life [2] [h] | AUC(0-t) [2] [µM·h] | Cmax [2] [nM] | EC50 (GLP-1R) [nM] | Agonistic activity on GLP-1R Max Activity (%) (GLP-1R) | SMILES
1 | NA/NA | NA/NA | 8 | 21 | 1.81 | 46 | 24 | 93 | 5.51 | 43 | 0.0227 | 122.64 | CC(C)C[C@H](NC(=O)[C@H](CC(C)C)NC(=O)[C@H](Cc1c[nH]c2ccccc12)NC(=O)[C@H](CCC(=O)O)NC(=O)[C@@H](NC(=O)[C@H](Cc1ccccc1)NC(=O)[C@H](CCC(=O)O)NC(=O)[C@@H]1CCCCNC(=O)CN(C(=O)COCCOCCNC(=O)COCCOCCNC(=O)CC[C@H](NC(=O)CCCCCCCCCCCCCCCCCCC(=O)O)C(=O)O)CC(=O)NCCCC[C@H](NC(=O)[C@H](CCC(=O)O)NC(=O)[C@H](CC(=O)O)NC(=O)[C@H](CC(C)C)NC(=O)[C@H](Cc2ccc(O)cc2)NC(=O)[C@H](CCCCN)NC(=O)[C@H](CO)NC(=O)[C@H](Cc2ccc(O)cc2)NC(=O)[C@H](CC(=O)O)NC(=O)[C@H](CO)NC(=O)[C@@H](NC(=O)[C@H](Cc2ccccc2)NC(=O)[C@@H](NC(=O)CNC(=O)[C@H](CCC(N)=O)NC(=O)C(C)(C)NC(=O)[C@@H](N)Cc2c[nH]cn2)[C@@H](C)O)[C@@H](C)O)C(=O)N[C@@H](CCCCN)C(=O)N[C@@H](C)C(=O)N1)C(C)C)C(=O)N[C@@H](CCC(=O)O)C(=O)NCC(=O)NCC(=O)N1CCC[C@H]1C(=O)N[C@@H](CO)C(=O)N[C@@H](CO)C(=O)NCC(N)=O [WX001]
2 | NA/NA | NA/NA | 12 | 22 | 1.16 | 36 | 32 | 67 | 5.72 | 48 | 0.0446 | 85.77 | CC(C)C[C@H](NC(=O)[C@H](CC(C)C)NC(=O)[C@H](Cc1c[nH]c2ccccc12)NC(=O)[C@@H]1CCCCNC(=O)CN(C(=O)COCCOCCNC(=O)COCCOCCNC(=O)CC[C@H](NC(=O)CCCCCCCCCCCCCCCCCCC(=O)O)C(=O)O)CC(=O)NCCCC[C@H](NC(=O)[C@H](C)NC(=O)[C@H](CCCCN)NC(=O)[C@H](CCCCN)NC(=O)[C@H](CCC(=O)O)NC(=O)[C@H](CC(=O)O)NC(=O)[C@H](CC(C)C)NC(=O)[C@H](Cc2ccc(O)cc2)NC(=O)[C@H](CCCCN)NC(=O)[C@H](CO)NC(=O)[C@H](Cc2ccc(O)cc2)NC(=O)[C@H](CC(=O)O)NC(=O)[C@H](CO)NC(=O)[C@@H](NC(=O)[C@H](Cc2ccccc2)NC(=O)[C@@H](NC(=O)CNC(=O)[C@H](CCC(N)=O)NC(=O)C(C)(C)NC(=O)[C@@H](N)Cc2c[nH]cn2)[C@@H](C)O)[C@@H](C)O)C(=O)N[C@@H](CCC(=O)O)C(=O)N[C@@H](Cc2ccccc2)C(=O)N[C@@H](C(C)C)C(=O)N1)C(=O)N[C@@H](CCC(=O)O)C(=O)NCC(=O)NCC(=O)N1CCC[C@H]1C(=O)N[C@@H](CO)C(=O)N[C@@H](CO)C(=O)NCC(N)=O [WX004]
